How the values were obtained:
[1] = target: Diacylglycerol lipase-beta (Mus musculus) (UniProt Q91WC9); experiment: DAGLb inhibition in intact mouse cells, late-stage follow-up, cell-based, gel-based competitive ABPP, fluorescence, in situ, dose response (AID 602354); conditions: DAGLb
[2] = target: Monoacylglycerol lipase ABHD6 (Mus musculus) (UniProt Q8R2Y0); experiment: as above
Sequence of Monoacylglycerol lipase ABHD6 (Mus musculus) (Q8R2Y0 whole entry, looked up): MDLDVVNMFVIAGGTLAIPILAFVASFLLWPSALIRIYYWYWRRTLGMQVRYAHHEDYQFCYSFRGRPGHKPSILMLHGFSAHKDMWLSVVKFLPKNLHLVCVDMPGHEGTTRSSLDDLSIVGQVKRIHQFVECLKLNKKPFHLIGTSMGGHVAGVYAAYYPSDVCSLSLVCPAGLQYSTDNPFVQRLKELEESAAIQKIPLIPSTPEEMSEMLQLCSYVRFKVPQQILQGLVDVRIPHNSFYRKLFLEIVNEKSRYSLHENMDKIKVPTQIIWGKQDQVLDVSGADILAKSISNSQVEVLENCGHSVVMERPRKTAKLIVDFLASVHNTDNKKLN

Sequence of Diacylglycerol lipase-beta (Mus musculus) (Q91WC9 whole entry, looked up): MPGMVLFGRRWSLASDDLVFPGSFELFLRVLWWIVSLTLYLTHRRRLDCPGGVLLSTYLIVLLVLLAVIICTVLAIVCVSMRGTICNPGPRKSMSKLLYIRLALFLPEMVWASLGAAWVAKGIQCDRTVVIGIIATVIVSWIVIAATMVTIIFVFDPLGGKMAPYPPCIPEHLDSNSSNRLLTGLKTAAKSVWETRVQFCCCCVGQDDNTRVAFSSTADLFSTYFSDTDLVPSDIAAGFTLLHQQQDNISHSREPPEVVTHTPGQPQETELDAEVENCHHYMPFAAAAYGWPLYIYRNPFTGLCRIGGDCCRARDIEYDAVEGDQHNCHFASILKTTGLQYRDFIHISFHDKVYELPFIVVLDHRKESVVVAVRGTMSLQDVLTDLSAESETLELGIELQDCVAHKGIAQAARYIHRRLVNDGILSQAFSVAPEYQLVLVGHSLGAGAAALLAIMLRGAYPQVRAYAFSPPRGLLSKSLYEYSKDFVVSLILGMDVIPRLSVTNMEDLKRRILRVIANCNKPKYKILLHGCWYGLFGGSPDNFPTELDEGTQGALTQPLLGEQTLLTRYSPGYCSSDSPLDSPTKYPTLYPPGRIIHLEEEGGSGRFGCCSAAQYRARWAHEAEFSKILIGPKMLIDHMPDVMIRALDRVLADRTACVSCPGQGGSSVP

| Compound | IC50 [1] [nM] | IC50 [2] [nM] |
| --- | --- | --- |
| COc1ccccc1-c1ccc(-c2cn(C(=O)N3CCCCC3Cc3ccccc3)nn2)cc1 (centres undefined) | 12 | 0.48 |
| O=C(N1CCCCC1Cc1ccccc1)n1cc(-c2ccc(-c3ccccc3)cc2)nn1 (centres undefined) | 16 | 0.46 |

Reference: PubChem BioAssay AID602354 (The Scripps Research Institute Molecular Screening Center, 2012)
